Results from a melting point compilation (Tetko et al.; mined from patent text by program, amines drawn as free bases though some values may be those of a salt).

| SMILES | melting point |
| --- | --- |
| C=CC(=O)c1ccc(OC(=O)c2ccc(C#N)cc2)cc1 | 122 °C |
| CC1(C)CC(NC(=O)CCC(=O)NC2CC(C)(C)N(OC3CCCCC3)C(C)(C)C2)CC(C)(C)N1OC1CCCCC1 | 230 to 234 °C |
| Cc1cccc(Cl)c1C(=O)N[C@@H](Cc1ccc(-c2c(C)n(C)c(=O)n(C)c2=O)cc1)C(=O)O | 238 to 240 °C |
| CCCNc1ccc(C(=O)N2CCCC(CC(=O)NC(C)C)c3ccccc32)c(Cl)c1 (stereo unspecified) | 140 to 143 °C |
| Cc1oc(-c2ccccc2)nc1COc1ccc(CON=C(CCC(=O)O)c2cccnc2)cc1 | 158 to 159 °C |
| CC(=O)Oc1cc2nc[nH]c(=O)c2cc1OCc1ccccc1 | 231 to 233 °C |
| Cn1c2cc(Cl)ccc2c2c(CO)nn(-c3ccccc3)c(=O)c21 | 219 to 220 °C |
| Cc1c(NC(=O)CC(C)(C)C)c(C)c2c(C)coc2c1Cc1ccc(C(C)C)cc1 | 171 to 172 °C |
| O=c1[nH]c2cc(Cl)ccc2c(=O)n1S(=O)(=O)c1ccc(Cl)cc1 | 286 to 287 °C |
| CC(=O)c1sc(-c2ccc(C(F)(F)F)cc2)nc1C | 89 to 90 °C |
| COc1ccc2ccc(NC(=O)c3c(F)cccc3F)nc2n1 | 219 to 220 °C |
| CN(CCSc1ccc(NS(C)(=O)=O)cc1)CCc1ccc(NS(C)(=O)=O)cc1 | 160 to 163 °C |
| N=C(N)Nc1nc(-c2csc(N)n2)cs1 | 274 °C |
| CC1C(=O)N(c2ccccc2)C(=S)N1c1ccc(Oc2ccc(O)cc2)cc1 (stereo unspecified) | 106 to 108 °C |
| Cc1ccc(S(=O)(=O)Nc2nc(-c3ccc(OCc4ccccc4)cc3)cs2)cc1 | 166 to 167 °C |
| CC(=O)Nc1ccc(N2CCN(c3ccc(O)cc3)CC2)cc1 | 256 °C |
| CC(C)(C)OC(=O)Oc1nc2c(N)ncnc2n1Cc1ccccc1 | 287 to 289 °C |
| COc1cc(OC)c2c(=O)[nH]c(-c3cc(C)cc(OCCO)c3)nc2c1 | 107 to 109 °C |
| CC(C)(C)C(=O)C1=C(O)C(=O)N(c2ccc(-c3ccon3)cc2)C1C1CCCCC1 (stereo unspecified) | 259 to 260 °C |
| O=[N+]([O-])c1cc(CCl)ccc1OCc1ccccc1 | 60 to 61 °C |
| C=CCCCCNC(=O)c1cnc(OCC(O)CNC(C)(C)C)s1 (stereo unspecified) | 80 to 81 °C |
| CC1(C)SC(=O)C2OC=CC=C21 (stereo unspecified) | 42 °C |
| CNC(=O)C(=O)c1ccccc1COc1ccccc1 | 78 °C |
| CCc1c(-c2ccc3cn[nH]c3c2)cc(Nc2ccc(N3CCN(CC)CC3)cn2)c2nccn12 | 217 °C |
| COC(=O)c1c(O)ccnc1C(F)(F)F | 78 to 82 °C |
| Cc1cccc(CC(NC(=O)C(c2ccccc2)c2ccccc2)C(=O)NC(C#N)COCc2cccc(C(=O)O)c2)c1 (stereo unspecified) | 160 to 162 °C |

| SMILES | melting point |
| --- | --- |
| COC(=O)C(=NOCF)c1ccccc1Oc1ncnc(Oc2ccccc2Cl)c1F | 153 to 155 °C |
| C=C(C)CNc1cc(C(=O)O)cc(S(N)(=O)=O)c1Sc1ccc(N)cc1 | 237 to 240 °C |
| CCCCc1ccc(-c2nc(F)c(-c3ccc(OC)cc3)o2)cc1 | 72 °C |
| O=C(O)CCSc1cccs1 | 110 to 112 °C |
| COc1ccc(C[C@H]2C3=C(CCCC3)CCN2C(C)=O)cc1 | 80 to 81.5 °C |
| CCOC(=O)c1c(O)c2cc(F)ccc2c(=O)n1CC(C)C | 91 to 92 °C |
| C=CCCCS(=O)(=O)CCCC(=O)O | 104 to 107 °C |
| O=S1(=O)NC2CCCN2c2c(F)cc(O)cc21 (stereo unspecified) | 167 to 169 °C |
| COC(=O)CCC(=O)c1ccc(C)cc1OCC(O)CNC(C)(C)C (stereo unspecified) | 82 to 84.5 °C |
| CCOC(=O)c1c[nH]c2cc(Cl)ncc2c1=O | 300 °C |
| C[Si](C)(C)C=Cc1cn(C2OC(CO)C(O)C2F)c(=O)[nH]c1=O (stereo unspecified) | 164 to 165 °C |
| Cc1cc(C(F)(F)F)nn1CC(=O)N1CCC(c2nc(C3=NOC(c4ccccc4Cl)C3)cs2)CC1 (stereo unspecified) | 115 to 122 °C |
| OCC1OC(n2cnc3c(-c4ccccc4)ncnc32)C(O)C1O (stereo unspecified) | 224 to 225 °C |
| Brc1cc2nc(NC3=NCCN3)[nH]c2cc1Br | 261 to 267 °C |
| COc1ccnc(N2CCN(C(=O)c3cccs3)CC2)n1 | 143 to 145 °C |
| N#Cc1ncc(-c2ccccc2)nc1Cl | 143 to 145 °C |
| O=c1[nH]c2ccccc2n1CCN1CCN(C(c2ccccc2)c2ccccc2)CC1 | 218 °C |
| CC(C)(C)OC(=O)N1CCC(Oc2ccc(C#N)c(/C=C/N3CCCC3)c2)CC1 | 115 to 117 °C |
| COc1ccc(-c2cnc3c(-c4ccsc4)cnn3c2)cc1 | 191 to 193 °C |
| CN1C(=S)C(C)(C)N=C1SCc1ccccc1N(C)C | 76 to 78 °C |
| CCCC(CCC)C(=O)NC(=O)C(N)c1ccccc1 (stereo unspecified) | 190 to 191 °C |
| CS(=O)(=O)n1ccc(-c2ccc(Oc3ccccc3)cc2)n1 | 136 °C |
| COC(=O)c1cc(O)cc(C(=O)OC)c1[N+](=O)[O-] | 183 to 186 °C |
| CN1CCN(C(=O)Cc2c(-c3ccc(Cl)cc3)nc3ccccn23)CC1 | 175 °C |
| CCCCOc1cc2c(nc(O)n2Cc2ccccc2)c(N)n1 | 205 to 208 °C |
| CCCCCCCCCN(O)C(=O)N(C)C | 39 to 40 °C |

| SMILES | melting point |
| --- | --- |
| O=[N+]([O-])c1ccc(Sc2nccn2Cc2ccccc2)cc1 | 122 to 123 °C |
| O=C(CCCOc1ccc2nc3[nH]c(=O)[nH]c3cc2c1)NC1CCCC1 | > 320 °C |
| CCOC(CCCNS(=O)(=O)c1ccccc1)OCC | 109 °C |
| COc1cc(C(=O)O)ccc1CN1CCOc2ccc(NC(=O)OC3CCCC3)cc21 | 221 to 222 °C |
| Clc1ccc(-c2cn3cc(Br)ccc3n2)cc1 | 210 to 211 °C |
| CCC(=O)C1=CC=C(OC)C(Cl)(Cl)C1 | 51 to 54 °C |
| CCOC(=O)CC(CCCNC(=O)c1csc(NC(=O)NCc2ccccc2)n1)c1ccccc1 (racemic) | 93 °C |
| CCOCc1cc(O)cc2cc(-c3ccc(O)cc3)oc12 | 166 to 168 °C |
| O=c1ccccn1[C@@H]1c2cc(C(F)(F)C(F)(F)F)ccc2OC(CF)(CF)[C@H]1O (relative stereo) | 162 to 164 °C |
| CC1CCC(C(C)C)C(OC(=O)[C@@H](c2ccc(OCc3ccc4ccccc4n3)cc2)C2CCCCCC2)C1 (stereo partly specified) | 127 °C |
| CN(C(=O)Nc1ccc2ccccc2c1)c1cccc(-c2ccc(CC3SC(=O)NC3=O)cc2)c1 (stereo unspecified) | 196 °C |
| CC(C)(CNc1ccc(C(=O)CCCC(=O)O)cc1)[N+](=O)[O-] | 160 to 161 °C |
| COCN(c1cccc2cc(C(=O)O)n(COC)c12)S(=O)(=O)c1cccs1 | 183 to 184 °C |
| CCC1(CC)C(=O)ON(C(=O)c2ccccc2)C1=O | 76 to 79 °C |
| CS/C(=N\O)C(F)(F)F | 52 to 54 °C |
| CCOC(=O)COc1cc(C)nc2c(O)cccc12 | 97 to 98 °C |
| Cc1onc(-c2ccccc2)c1C(=O)NCCCN1CCN(c2ccccc2OCC(F)(F)F)CC1 | 124 to 125 °C |
| COc1ccc2cc(-c3ccc(OCC(O)CNC(C)C)cc3)n(C)c(=O)c2c1 (stereo unspecified) | 140 to 142 °C |
| Cn1nc2c3c(c(Cl)ccc31)C(=O)c1cnccc1-2 | 244 to 245 °C |
| CCCc1nn(-c2ccc(C(F)(F)F)cn2)cc1CCCOc1c(C)cccc1CC(=O)O | 134 to 135 °C |
| c1ccc2c(c1)OCC(CN1CCC(CNc3nc4cc5c(cc4s3)OCO5)CC1)O2 (stereo unspecified) | 160 °C |
| CCc1ccc(OCC2CO2)cc1 (stereo unspecified) | 73.5 to 74.2 °C |
| NC(=O)CNCc1noc([C@H](CCCC2CCCCC2)CC(=O)NO)n1 | 60 to 70 °C |
| COc1ccc(NC(=O)NCc2cccc3c2CN(C2CCC(=O)NC2=O)C3=O)cc1 (stereo unspecified) | 320 to 322 °C |
| CC(C)([C@H](NC(=O)c1ccccc1)C(=O)N[C@@H](Cc1ccccc1)[C@H](O)CN1C[C@H]2CCCC[C@H]2C[C@H]1C(=O)NCc1ccccc1)S(C)(=O)=O | 212 to 218 °C |
| O=C(O)CCCCCCc1cc(-c2ccccc2)c2ccccc2n1 | 39 °C |

| SMILES | melting point |
| --- | --- |
| N=c1c2sc(=S)n(-c3ccccc3)c2ncn1NC(=O)c1ccco1 | 228 °C |
| CN=C1SCN(C(C)(C)C)C(=O)N1C | 51 to 52 °C |
| C[C@@H](O)[C@H]1C(=O)N([Si](C)(C)C(C)(C)C)[C@@H]1CC(=O)[Si](C)(C)C | 82 to 84 °C |
| CC12CCC3c4ccc(C(=O)O)cc4CCC3C1CCC2C(=O)c1ccc(F)cc1 (stereo unspecified) | 251 to 254 °C |
| CC(C)(C)C1CCN(CCCC(=O)c2ccc3c(c2)-c2ccc(C(=O)CCCN4CCC(C(C)(C)C)CC4)c4cccc-3c24)CC1 | 150 to 152 °C |
| COc1ccc(O)c(NC(C)=O)c1 | 156 to 157 °C |
| CSc1c(CC(C)(C)C(=O)O)n(Cc2ccc(Cl)cc2)c2ccc(F)cc12 | 161 to 163 °C |
| CC(C)c1cc(CN2C(=O)C3(COc4cc5c(cc43)OCO5)c3ccccc32)on1 (stereo unspecified) | 132 to 136 °C |
| Nc1ccccc1C(=O)N1CCCc2ccccc21 | 102 °C |
| O=C1C2CCCN2S(=O)(=O)N1CSc1nnnn1-c1ccccc1 (stereo unspecified) | 99.5 to 100 °C |
| CCOC(=O)C1Cc2ccccc2N1C(=O)c1c(O)c2cc(OC)cc3c2n(c1=O)CCO3 (stereo unspecified) | 135 to 138 °C |
| CS(=O)(=O)N1CCCn2c(nc3c(N)nc4cc(OCc5ccccc5)ccc4c32)C1 | 235 to 236 °C |
| O=C(O)c1cccc(OCc2csc(-c3ccccc3)n2)c1 | 155 to 157 °C |
| CC1(C)Oc2ccc(C#N)cc2C(C(=O)Nc2ccccc2)=C1O | 167 to 170 °C |
| CC(C)c1cccc(S(=O)(=O)n2c(Cc3ccc(C(=O)O)cc3)cc3cc(Cl)ccc32)c1 | 181 °C |
| COc1ccc(N2C(=O)C3=C(SCCS3)C2O)cc1 (stereo unspecified) | 153 to 154 °C |
| COC(=O)c1cc2cc(Br)ccc2nc1C | 150 to 151 °C |
| CNC(=O)N1N=C(c2ccc([N+](=O)[O-])c(C)c2)c2cc(Cl)ccc2C=C1C | 196 to 198 °C |
| CCOC(=O)c1cnc2c3cc(OC)c(OC)cc3ccn2c1=O | 264 to 265 °C |
| COc1ccc2c(c1OC)CC[C@@H]1NC(=O)CC[C@H]21 (relative stereo) | 243 to 245 °C |
| O=C1NC(CCO)CO1 (stereo unspecified) | 90 to 91 °C |
| CC(C)(C)OC(=O)N1CCN(Cc2ccccc2)C(=S)C1 | 126 to 129 °C |
| O=C(O)c1ccc(OCC2CCCC2Nc2ccc(Cl)cc2)cc1 (stereo unspecified) | 153 to 156 °C |
